Patent US20160287602A1, “METHODS FOR PROMOTING MOTOR NEURON SURVIVAL” (PRESIDENT AND FELLOWS OF HARVARD COLLEGE, priority 2013, published 2016)
“Also recorded” adds a separate entry of the source.

Assays:
[1] = tested on: SOD1^G93A (SOD1^G93A/Hb9::GFP) mouse ESC derived MNs; test: MN survival after trophic factor withdrawal, mixed culture; type: cell-based
Source text: In the present study, we have screened highly specific small molecule kinase inhibitors to identify those which could promote MN survival. For the screen, we generated MNs from wild-type (Hb9::GFP) and SOD1^G93A (SOD1^G93A/Hb9::GFP) mouse ESCs using published protocols (Di Giorgio et al., 2007). We withdrew trophic factors as a standard method to induce MN death. Cell plating density as well as timing for initiation and duration of trophic factor withdrawal were used exactly as published to achieve ˜80% MN death in 3 days (FIG. 1A) (Yang et al., 2013). […] We continued to work with this compound class as it reproducibly promoted survival of both MNs types and the effect was robust. We further reasoned that since this compound class promoted survival of both MN types, the probability of its working in other contexts such as on human MNs and in the ALS mouse model was maximum.
High expression of Aurora kinases is associated with various types of cancer (Sen et al., 1997; Reichardt et al., 2003; Tchatchou et al., 2007) and there are many AKIs including VX-680 and ZM447439 that are in clinical trials for anti-cancer drug development.
Trophic factors were removed and ZM447439 was added to the cultures as previously and MN survival was analyzed on day 7, 14 & 21.

[2] = tested on: iPSCs derived MNs; test: iPSC derived MNs co-cultured with wild type or SOD1^G93A astrocytes; type: cell-based, human; conditions: iPSCs derived MNs cultured on wild type or SOD1^G93A astrocytes
Source text: (§1) We produced MNs from human iPSCs lines including a healthy control, two ALS patients expressing confirmed mutations in SOD1 (Boulting et al., 2011), two with mutations in TDP-43 and one in C90RF72. We treated these cultures with AraC to minimize the number of proliferating progenitors. […] We also examined the effect of SOD 1^G93A astrocytes co-culture on iPSC derived MNs. We found no toxic effect on survival in any of the patient iPSC derived MNs, but we did observe decreased MN survival in the control iPSC derived MNs. […] We also looked at the effect of AKIs on morphology and synapse formation. […] In addition, by immunoblot we observed that ZM447439 enhanced synaptic protein, synaptophysin, expression in both the presence and absence of trophic factors.

[3] = tested on: human ESC derived MNs on SOD1^G93A astrocytes; test: Human ESC derived MNs co-cultured with astrocytes; type: cell-based
Source text: We generated MNs from a human ESC line expressing an HB9::GFP transgene [HuES-3/Hb9::GFP (Di Giorgio et al., 2008)]. Human ESC derived MN cultures were pre-treated with AraC to eliminate progenitor cells. We induced MN death by again withdrawing trophic factors. […] We also investigated the toxic effect of SOD1^G93A astrocytes on human ESC derived MN survival. We found significant death of human MNs cultured on mutant astrocytes.

[4] = tested on: iPSC-derived MN lines; test: Synapse formation of iPSC-derived MNs; type: cell-based, human; conditions: all iPSC-derived MN lines, absence of trophic factor
Source text: as §1

[5] = tested on: human iPSC derived MNs (healthy control, SOD1, TDP-43, C90RF72); test: Human iPSC derived MN survival; type: cell-based
Source text: as §1

[6] = tested on: Hb9::GFP MNs; test: MN morphology analysis of surviving MNs; type: cell-based, mouse; conditions: absence of trophic factors, extended time point
Source text: (§2) To examine whether MNs kept alive by AKIs maintain morphological integrity we carried out a series of analyses on surviving MNs in the absence of trophic factors. […] We also used an automated imager to analyze the number of synapses per MN by counting co-localized regions positive for the presynaptic marker synapsin and the postsynaptic marker PSD-95.

[7] = tested on: SOD1^G93A/Hb9::GFP MNs; test: MN morphology analysis of surviving MNs; type: cell-based, mouse; conditions: absence of trophic factors, extended time point
Source text: as §2

[8] = tested on: Hb9::GFP MNs; test: MN survival in co-culture with primary WT or SOD1^G93A astrocytes; type: cell-based, mouse; conditions: Hb9::GFP MNs on WT or SOD1^G93A astrocytes
Procedure: (§3) We sought to examine whether AKIs decrease the toxic effect of SOD1^G93A mutant astrocytes. We first cultured primary astrocytes from wild type (WT) and SOD1^G93A mice and plated FACS purified MNs on top. We observed significant cell death when MNs were cultured on mutated astrocytes compared to WT astrocytes. ZM447439 improved both Hb9::GFP and SOD1^G93A/Hb9::GFP MN survival.

[9] = tested on: SOD1^G93A/Hb9::GFP MNs; test: as above; type: cell-based, mouse
Procedure: as §3

[10] = tested on: MNs; test: Lentivirus knockdown of Prkarlb, MN survival; type: cell-based, mouse
Source text: Next we sought to investigate the mechanism by which AKIs promote MN survival. To evaluate this comprehensively we performed microarray analysis to compare gene expression between MNs cultured with: 1) Trophic factors (+TF), 2) No trophic factors (−TF), 3) VX-680 in the absence of TFs, and 4) ZM447439 in the absence of TFs. […] Gene expression was compared between +TF and −TF, VX-680 and −TF, and ZM447439 and −TF. With a cut off of more than 3 fold difference, there were 85 genes overlapping in all three comparison in Hb9::GFP MNs and 57 in SOD1^G93A/Hb9::GFP MNs. We found 39 overlapping genes when we compared both types of MNs (FIG. 5B). […] We analyzed the shortlist of 39 genes by using DAVID functional annotation bioinformatics microarray analysis software to find the potential pathways involved in MN survival. […] PKA is known to phosphorylate BAD protein, leading to increased cell survival (Jose M. LIZCANO et al., 2000; Julian Downward et al., Nature cell biology 1999; Komaki S et al., Neurosci Lett 2012). […] We further investigated this pathway by lentivirus knockdown of Prkarlb.

[11] = tested on: Prkarlb; test: Prkar1b immunostaining in surviving MNs; type: cell-based, mouse; conditions: absence of TFs
[12] = tested on: iPSC-derived MN lines; test: Morphology of iPSC-derived MNs; type: cell-based, human; conditions: all iPSC-derived MN lines, absence of trophic factor
Source text: as §1

[13] = tested on: synaptophysin; test: Synaptophysin immunoblot, iPSC-derived MNs; type: cell-based, human; conditions: both the presence and absence of trophic factors
Source text: as §1

COc1cc2c(Nc3ccc(NC(=O)c4ccccc4)cc3)ncnc2cc1OCCCN1CCOCC1 [ZM447439, N-[4-[[6-Methoxy-7-[3-(4-morpholinyl)propoxy]-4-quinazolinyl]amino]phenyl]benzamide]
basal MN death ([1]; in presence of neurotrophic factors, day 7, 14 & 21): prevented
survival of MNs (number of surviving MNs) ([1]; trophic factor withdrawal, 3 days, SOD1^G93A/Hb9::GFP MNs): consistently increased the survival of MNs; also recorded: most potent and robust at increasing survival
long term MN survival ([1]; trophic factors removed, day 7, 14 & 21, SOD1^G93A/Hb9::GFP MNs): increased survival
MN survival in astrocyte co-culture [2]: improved survival
death of human MNs cultured on mutant astrocytes ([3]; SOD1^G93A astrocytes co-culture): completely rescued; also recorded: decreases the toxic effect
size of human MN ([3]; co-cultured with both wild-type and mutant astrocytes): significantly increased
synapse formation [4]: preserved both
MN survival ([5]; all human iPSC derived MN cultures, AraC treated): substantially increase MN survival
MN survival, comparison of VX-680 and ZM447439 ([5]; human iPSC derived MN cultures): more effective and potent in rescuing human MN death
MN morphology (total neurite length, maximum neurite length, number of extremities and number of nodes per MN) [6]: preserved all of these features
MN morphology (total neurite length, maximum neurite length, number of extremities and number of nodes per MN) [7]: preserved all of these features
MN survival in astrocyte co-culture [8]: improved
MN survival in astrocyte co-culture ([9]; SOD1^G93A/Hb9::GFP MN co-cultured with SOD1^G93A astrocytes): less of an increase in survival
MN survival in astrocyte co-culture ([9]; SOD1^G93A/Hb9::GFP MNs on WT or SOD1^G93A astrocytes): improved
MN survival on knocking down Prkarlb in the presence of the compound [10]: effectively decreased MN survival
levels of Prkarlb [11]: increased levels
morphology [12]: preserved both
synaptic protein synaptophysin expression [13]: enhanced
